pIC50: −log10 of the molar value. Several values for one entry are separate records, joined by “and”; a condition that tells them apart may be missing. Equal entries are not always repeated.
Biological target: BTK(C481S) (Homo sapiens (Human), UniProt Q06187, C481S)
Test: pBTK inhibition in HEK293 cells transfected with BTK(C481S) (ELISA)
Type: cell-based
Conditions: 2 h
Method: For positive (high signal) controls, cells were treated with 0.5% DMSO alone. […] The absorbance was read at 450 nm. • Based on the absorbance readings of the positive and negative control values, the % inhibition value was calculated according to the following formula: (% INH=((positive control−sample)/(positive control−negative control))×100. • The Z′ value was calculated based on the following formula: 1−((3×standard deviation of positive+3×standard deviation of negative)/(mean positive−mean negative)). • The […] was plotted using GraphPad Prism. • IC50 values were determined after sigmoidal dose-response curve fitting.

Sequence of BTK(C481S) (Q06187 whole entry C481S): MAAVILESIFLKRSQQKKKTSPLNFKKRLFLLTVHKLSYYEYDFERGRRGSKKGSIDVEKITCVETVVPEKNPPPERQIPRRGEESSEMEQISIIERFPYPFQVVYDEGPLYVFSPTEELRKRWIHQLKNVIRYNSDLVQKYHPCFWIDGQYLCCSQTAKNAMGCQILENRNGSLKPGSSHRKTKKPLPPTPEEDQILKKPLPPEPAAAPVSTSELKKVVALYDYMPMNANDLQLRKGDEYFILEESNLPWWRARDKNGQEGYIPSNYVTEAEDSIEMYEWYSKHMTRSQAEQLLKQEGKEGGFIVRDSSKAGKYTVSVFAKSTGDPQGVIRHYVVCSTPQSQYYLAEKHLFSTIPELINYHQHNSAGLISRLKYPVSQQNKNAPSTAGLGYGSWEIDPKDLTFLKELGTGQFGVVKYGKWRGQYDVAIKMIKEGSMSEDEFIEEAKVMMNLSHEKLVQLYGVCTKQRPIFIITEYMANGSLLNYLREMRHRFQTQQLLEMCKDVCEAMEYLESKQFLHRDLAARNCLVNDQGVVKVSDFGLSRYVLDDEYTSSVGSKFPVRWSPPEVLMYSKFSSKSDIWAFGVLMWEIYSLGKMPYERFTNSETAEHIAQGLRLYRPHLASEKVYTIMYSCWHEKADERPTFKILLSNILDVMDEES

SMILES: Nc1nccn2c(C34CCC(NC(=O)CN5CCOCC5)(CC3)C4)nc(-c3ccc(C(=O)Nc4cc(C(F)(F)F)ccn4)cc3)c12 [Compound A-10-10, 4-(8-amino-3-(4-(2-morpholinoacetamido)bicyclo[2.2.1]heptan-1-yl)imidazo[1,5-a]pyrazin-1-yl)-N-(4-(trifluoromethyl)pyridin-2-yl)benzamide]
- pIC50: 7.18 and 7.20
